Assay results as given in US11478471B2, “Methods and compositions for treating diabetes, metabolic syndrome and other conditions” (priority 2005, dated 2022).
In brackets after ≈: the same amount, converted by molar mass. Read-outs that look alike come from different tables or passages of the source.

What was measured:
P450 3A = settings: read-out: IC50, progesterone 6β hydroxylase (3A); Rotstein et al. 1992; cited from earlier work
P450 4A = settings: read-out: IC50, lauric acid hydroxylase (4A); Rotstein et al. 1992; cited from earlier work
[1] = dog, in vivo, 40 mg/kg
Method: As a control, a separate set of 2 male and 2 female dogs was treated with vehicle.

[2] = test system: CYP7A (cholesterol 7α hydroxylase); experiment: Inhibition of CYP7A, cholesterol 7α-hydroxylase activity (Rotstein et al. 1992); settings: assuming intrahepatic concentration approximately 20% of total plasma concentration
Issatchenkia orientalis = experiment: Antifungal MIC; assay type: cell-based; settings: Pichia kudriavzevii, read-out: MIC
[3] = test system: mouse L5178Y lymphoma cells; experiment: Mouse lymphoma assay, thymidine kinase locus; settings: with and without S-9, up to toxic doses
[4] = Toxicokinetics in the 28 day dog study of DIO-902 (with racemic ketoconazole group a); settings: beagle, plasma; for AUC(0-t): AUC(0-12); for concentration at 0 h / concentration at 1 h / concentration at 2 h / concentration at 4 h / concentration at 8 h / concentration at 12 h: Drug concentration in plasma;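 for all read-outs here: beagle dogs dosed orally once daily within a 28-day GLP study, 3 animals per sex per group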
[5] = female, po, 2 mg/kg, dogs, 2 mg/kg oral, day 1, F
[6] = female, po, 2 mg/kg, dogs, 2 mg/kg oral, day 28, F
[7] = female, po, 6.5 mg/kg, dogs, 6.5 mg/kg oral, day 28, F
[8] = female, po, 6.5 mg/kg, dogs, 6.5 mg/kg oral, day 1, F
[9] = female, po, 20 mg/kg, dogs, 20 mg/kg oral, day 28, F
[10] = female, po, 20 mg/kg, dogs, 20 mg/kg oral, day 1, F

## CC(=O)N1CCN(c2ccc(OC[C@@H]3CO[C@@](Cn4ccnc4)(c4ccc(Cl)cc4Cl)O3)cc2)CC1 [DIO-902, 2S,4R cis-1-acetyl-4-[4-[[2-(2,4-dichlorophenyl)-2-(1H-imidazol-1-ylmethyl)-1,3-dioxolan-4-yl]methoxyl]phenyl]piperazine]
P450 3A
  IC50: 1300 nM
P450 4A
  IC50: > 100000 nM
[1]
  clinical signs: vomiting
[2]
  total plasma concentration required to inhibit intrahepatic CYP7A: 12 microM and approximately 6.3 microg/mL
Issatchenkia orientalis; DSM11956, DSM strain 11956, 48 h
  MIC: 0.25 µg/mL (≈ 0.47 µM)
Issatchenkia orientalis; DSM11958, DSM strain 11958, 48 h
  MIC: 1 µg/mL (≈ 1.88 µM)
[3]
  genotoxicity, mouse lymphoma assay: negative
[4]; both, oral, 20 mg/kg, Tmax values, dogs, 2, 6.5 and 20 mg/kg, Day 1
  Tmax: 1 to 8 h
[4]; both, oral, 20 mg/kg, Tmax values, dogs, 2, 6.5 and 20 mg/kg, Day 28
  Tmax: 1 to 12 h
[4]; both, po, 20 mg/kg/day, dogs, 20 mg/kg/day, day 28
  Cmax: 9940 to 9950 ng/mL
[4]; female, po, 2 mg/kg, dogs, 2 mg/kg oral, day 1, F, n = 1
  AUC(0-t): 2570 ng·h/mL
[4]; female, po, 2 mg/kg, dogs, 2 mg/kg oral, day 28, F, n = 1
  AUC(0-t): 2760 ng·h/mL
[4]; [5]
  Cmax: 450 ng/mL
  concentration at 0 h: < 250 ng/mL
  concentration at 1 h: < 250 ng/mL
  concentration at 2 h: 270 ng/mL
  concentration at 4 h: 280 ng/mL
  concentration at 8 h: < 250 ng/mL
  concentration at 12 h: < 250 ng/mL
[4]; [6]
  Cmax: 750 ng/mL
  concentration at 0 h: < 250 ng/mL
  concentration at 1 h: 290 ng/mL
  concentration at 2 h: 520 ng/mL
  concentration at 4 h: 300 ng/mL
  concentration at 8 h: < 250 ng/mL
  concentration at 12 h: < 250 ng/mL
[4]; female, po, 2 mg/kg, Tmax Range, dogs, 2 mg/kg oral, day 1, F
  Tmax: 2 to 4 h
[4]; female, po, 2 mg/kg, Tmax Range, dogs, 2 mg/kg oral, day 28, F
  Tmax: 1 to 8 h
[4]; female, po, 6.5 mg/kg, dogs, 6.5 mg/kg oral, day 1, F, n = 1
  AUC(0-t): 4700 ng·h/mL
[4]; [7]
  AUC(0-t): 12900 ng·h/mL
  Cmax: 2410 ng/mL
  concentration at 0 h: < 250 ng/mL
  concentration at 1 h: 250 ng/mL
  concentration at 2 h: 1250 ng/mL
  concentration at 4 h: 1850 ng/mL
  concentration at 8 h: 1270 ng/mL
  concentration at 12 h: 340 ng/mL
[4]; [8]
  Cmax: 2570 ng/mL
  concentration at 0 h: < 250 ng/mL
  concentration at 1 h: < 250 ng/mL
  concentration at 2 h: 440 ng/mL
  concentration at 4 h: 2320 ng/mL
  concentration at 8 h: 500 ng/mL
  concentration at 12 h: < 250 ng/mL
[4]; female, po, 6.5 mg/kg, Tmax Range, dogs, 6.5 mg/kg oral, day 1, F
  Tmax: 2 to 4 h
[4]; female, po, 6.5 mg/kg, Tmax Range, dogs, 6.5 mg/kg oral, day 28, F
  Tmax: 2 to 8 h
[4]; female, po, 20 mg/kg, dogs, 20 mg/kg oral, day 1, F, n = 2
  AUC(0-t): 80600 ng·h/mL
[4]; [9]
  AUC(0-t): 77800 ng·h/mL
  Cmax: 9950 ng/mL
  concentration at 0 h: 2880 ng/mL
  concentration at 1 h: 1780 ng/mL
  concentration at 2 h: 2430 ng/mL
  concentration at 4 h: 6420 ng/mL
[4]; [10]
  Cmax: 14700 ng/mL
  concentration at 0 h: < 250 ng/mL
  concentration at 1 h: < 250 ng/mL
  concentration at 2 h: 650 ng/mL
  concentration at 4 h: 9720 ng/mL
  concentration at 8 h: 9950 ng/mL
  concentration at 12 h: 5440 ng/mL
